Assay results: patent US20050026263A1, “Multi-functional antibodies” (THE REGENTS OF THE UNIVERSITY OF CALIFORNIA, priority 2003, published 2005)
“Also recorded” adds a separate entry of the source. Each block holds one compound with its values, some of them ahead of it.

Legend:
antibody 2D12.5 = test: competitive immunoassay (ELISA) of metal-DOTA complexes relative to Y-DOTA; format: binding, murine; details: for binding compared with the original Y^3+ complex / other rare earths: DOTA complexes, 37° C.; for relative binding of Y-DOTA molecules with different sidechain locations (FIG. 17): Y complexes
From the text: FIG. 13 is graphical display showing the relative binding of metal-DOTA complexes to antibody 2D 12.5. A representative set of competitive binding curves obtained from ELISA experiments described in Example 3 below. Error bars (representing the standard error of the mean) are shown, but are generally smaller than the data points.
To determine the metal selectivity of the antibody 2D12.5, a competitive immunoassays was used to measure the binding constants of multiple metal-DOTA complexes relative to Y^3+-DOTA.
We examined the monoclonal antibody 2D12.5, initially developed to bind specifically to Y-DOTA for targeted radiotherapy (see, e.g., Goodwin et al., Cancer Res. 54: 5937-5946 (1994)), in order to determine the scope of its activity. To assess the metal selectivity of antibody 2D12.5, a competitive immunoassay to measure the binding constants of various metal-DOTA complexes relative to the original Y^3+ complex was developed (FIG. 12). Briefly, 2D12.5 was incubated at 37° C. in the presence of immobilized Y-DOTA and a soluble metal-DOTA competitor. The metal-DOTA concentration was varied from μM to pM in order to determine the relative binding affinity of 2D12.5 for each metal chelate in comparison to Y-DOTA. Binding was measured by standard methods known to those of skill in the art. The DOTA analog used to evaluate binding was [S]-2-(p-nitrobenzyl)-DOTA, which is similar to the original antigen.

2D12.5 = test: relative binding affinities of metal NBD/AABD complexes and DTPA to 2D12.5; set-up: species or system murine
Description: FIG. 18 is a graphical display showing the relative binding affinities of the NBD complexes of various metal ions relative to Y-NBD.
Relative binding affinities of NBD complexes of various metals ions relative to Y-NBD were determined by methods known in the art and described herein and shown in FIG. 18.

N85D_G54C 2D12.5 mutant = test: permanent binding of metal-AABD and metal-NBD complexes, Western blot (Example 10); details: metal-NBD complexes
Description: The native antibody 2D12.5 binds all rare earth DOTA complexes with high affinity (Corneillie et al., J. Am. Chem. Soc. 125:3436-37, 2003) and other metals with affinities that are weaker. […] Therefore, this mutant was selected for the present example.
Metallation of Chelates with stable metal cations. Metals tested in this experiment included Y, La, Lu, Sr and Sc. Stock chelate concentrations were measured using a Co-57 metal binding assay (Meares et al., Anal. Biochem. 142:68-78, 1984). Stock metal solutions (approximately 0.2 M) were prepared by dissolving the appropriate gravimetrically measured rare earth chloride salt in 0.05 M HCl. As an example, YCl3 (2.5 equivalents) was added to 25 μL of NBD ([…]) dissolved in 0.1 M tetramethylammonium acetate, and the pH was adjusted to 5 by the addition of triethylamine. The metallation was allowed to proceed overnight at 50° C. Samples were promptly frozen at −70° C., and metallation efficiency was assessed using a competitive metal-binding assay with Co-57^3. Excess metal was scavenged with DTPA, which has very low affinity for the antibody (<<1%).
Metal-AABD and metal-NBD complexes were incubated with 2D12.5 Fab mutant N85D_G54C and samples denatured, reduced and separated by SDS-PAGE, as described for Y-90 in the previous examples. […]

Compound: O=C([O-])CN1CCN(CC(=O)[O-])CCN(CC(=O)O)CCN(CC(=O)[O-])CC1.[Gd+3] [Gd-DOTA]
binding compared with the original Y^3+ complex / other rare earths (antibody 2D12.5): bind more tightly; also recorded: strongest binders

Compound: O=C([O-])CN1CCN(CC(=O)[O-])CCN(CC(=O)[O-])CCN(CC(=O)[O-])CC1.[Eu+3] [Eu-DOTA]
binding compared with the original Y^3+ complex / other rare earths (antibody 2D12.5): strongest binders

Compound: (5-Amino-2-methoxy-phenyl)-carboxymethyl)-DOTA
relative binding of Y-DOTA molecules with different sidechain locations (FIG. 17) (antibody 2D12.5): decrease in the binding affinity

Compound: O=C(O)CN1CCN(CC(=O)O)CCN(CC(=O)O)[C@@H](Cc2ccc([N+](=O)[O-])cc2)CN(CC(=O)O)CC1 [Y-NBD, (S)-2-(4-nitrobenzyl)-DOTA]
relative binding of Y-DOTA molecules with different sidechain locations (FIG. 17) (antibody 2D12.5): clearly stronger | relative binding of Y-DOTA isomers (FIG. 16) (antibody 2D12.5; coordinated metal Y^3+): preferred isomer for binding | binding rank of NBD complexes among the rare earths (2D12.5): one of the strongest binders

affinity for the antibody (2D12.5): < 1%
Compound: O=C(O)CN(CCN(CC(=O)O)CC(=O)O)CCN(CC(=O)O)CC(=O)O [DTPA]

Compound: O=C(O)CN1CCN(CC(=O)O)CCN(CC(=O)O)[C@H](Cc2ccc([N+](=O)[O-])cc2)CN(CC(=O)O)CC1 (single isomer, unassigned) [(R)-isomer of 2-(4-nitrobenzyl)-DOTA]
decrease of affinity as compared to the (S), Λ isomer (antibody 2D12.5; coordinated metal Y^3+ (FIG. 16)): less than an order of magnitude

Compound: O=C(O)CN1CCN(CC(=O)O)CCN(CC(=O)O)[C@@H](Cc2ccc([N+](=O)[O-])cc2)CN(CC(=O)O)CC1 [NBD]
permanent bond with N85D_G54C 2D12.5, non-electrophilic negative control (N85D_G54C 2D12.5 mutant): negative
